How the values were obtained:
MDA-MB-231 cells = experiment: MTT cytotoxicity assay against MDA-MB-231; type: cell-based; settings: Homo sapiens, 48 h, read-out: Percentage of inhibition against treated concentrations; for activity at 1 µM: MDAMB231, 1 µM; for activity at 5 µM: MDAMB231, 5 µM; for activity at 10 µM: MDAMB231, 10 µM; for activity at 25 µM: MDAMB231, 25 µM; for activity at 50 µM: MDAMB231, 50 µM
Experimental: (§1) Anticancer activity of 7a–s has been evaluated by MTT [3-(4,5-dimethylthiazol-2-yl)-2,5-diphenyl-tetrazolium bromide] assay and the cell lines HT29 (ATCC: HTB-38), MDA-MB-231 (ATCC: HTB-26), HEK293T (ATCC: CRL-3216) were procured from American type cell culture collection (ATCC), Manassas, USA and other chemicals were procured from Sigma-Aldrich. Then absorbance (used as a measure of cell proliferation) was measured at 570 nm with a kinetic micro-plate reader (BioTek, Winooski, Vermont).
(§2) Having synthesized a series of the title compounds, all of them were screened for their in vitro anticancer profiles against a panel of human colorectal adenocarcinoma (HT29), human breast adenocarcinoma (MDA-MB-231) and mutated Human embryonic kidney 293 (HEK293T) cancer cell lines by using MTT colourmetric assay as per Johan van Meerloo protocol. The three cell lines were cultured in […] medium and supplemented with 10% FBS followed by 100 units/mL penicillin/ streptomycin and were cultured at 37 °C in 5% CO2. Cell proliferation of the growing cells was measured in terms of logarithmic standards. Analytically, all the cultured cells were plated onto 96 well plates at a starting density of 10^5 cells. Then all the cells were treated with title compounds 7a–s for a period of 48 h with different concentrations. After this incubation cell proliferation inhibition was determined by MTT assay and all the experiments were conducted in triplicates and readings were presented as mean ± SD and provided in Tables 1, 2 and 3.

HEK293T cells = experiment: MTT cytotoxicity assay against HEK293T; type: cell-based; settings: Homo sapiens, HEK-293T, 48 h, read-out: Percentage of inhibition against treated concentrations
Experimental: as §1, §2

HT29 cells = experiment: MTT cytotoxicity assay against HT29; type: cell-based; settings: Homo sapiens, 48 h, read-out: Percentage of inhibition against treated concentrations; for activity at 1 µM: HT-29, HT29, 1 µM; for activity at 5 µM: HT-29, HT29, 5 µM; for activity at 10 µM: HT-29, HT29, 10 µM; for activity at 25 µM: HT-29, HT29, 25 µM; for activity at 50 µM: HT-29, HT29, 50 µM
Experimental: as §1, §2

Structure (SMILES)	activity at 1 µM (MDA-MB-231 cells) [%]	activity at 5 µM (MDA-MB-231 cells) [%]	activity at 10 µM (MDA-MB-231 cells) [%]	activity at 25 µM (MDA-MB-231 cells) [%]	activity at 50 µM (MDA-MB-231 cells) [%]	activity at 1 µM (HEK293T cells) [%]	activity at 5 µM (HEK293T cells) [%]	activity at 10 µM (HEK293T cells) [%]	activity at 25 µM (HEK293T cells) [%]	activity at 50 µM (HEK293T cells) [%]	melting point [°C]	activity at 1 µM (HT29 cells) [%]	activity at 5 µM (HT29 cells) [%]	activity at 10 µM (HT29 cells) [%]	activity at 25 µM (HT29 cells) [%]	activity at 50 µM (HT29 cells) [%]
O=C(c1ccncc1)N1CCn2c3ccccc3c(=O)c3cccc1c32 [Compound 7c, 3-Isonicotinoyl-2,3 dihydropyrazino[3,2,1-de]acridin-7(1H)-one]	86.8 ± 0.96	57.39 ± 0.32	47.2 ± 0.93	38.69 ± 0.28	22.8 ± 0.89	96.63 ± 0.53	94.28 ± 0.53	90.18 ± 0.38	83.28 ± 0.21	49.08 ± 0.23	233 to 235	90.02 ± 0.31	66.2 ± 0.83	52.9 ± 0.84	40.37 ± 0.15	20.79 ± 0.08
O=C(c1ccc(F)cc1)N1CCn2c3ccccc3c(=O)c3cccc1c32 [Compound 7r, 3-(4-Fluorobenzoyl)-2,3-dihydro-1H,7H-pyrazino[3,2,1-de]acridin-7-one]	96.33 ± 0.48	86.31 ± 0.21	78.85 ± 0.32	69 ± 0.05	40.7 ± 0.86	97.98 ± 0.88	95.25 ± 0.68	92.81 ± 0.21	88.11 ± 0.25	51.93 ± 0.23	236 to 238	91.9 ± 0.93	75.12 ± 0.73	66.15 ± 0.13	55.26 ± 0.23	21.6 ± 0.24
O=C(c1ccccc1)N1CCn2c3ccccc3c(=O)c3cccc1c32 [Compound 7l, 3-Benzoyl-2,3-dihydro-1H,7H-pyrazino[3,2,1-de]acridin-7-one]	95.13 ± 0.85	82.38 ± 0.27	75.3 ± 0.81	65.86 ± 0.47	38.8 ± 0.88	96.44 ± 0.31	94.13 ± 0.23	89.65 ± 0.12	82.83 ± 0.54	48.8 ± 0.67	253 to 255	97.17 ± 0.22	83.2 ± 0.99	76.71 ± 0.06	68.88 ± 0.47	30.6 ± 0.87
O=C(c1ccccc1C(F)(F)F)N1CCn2c3ccccc3c(=O)c3cccc1c32 [Compound 7m, 3-(2-(Trifluoromethyl)benzoyl)-2,3-dihydro-1H,7H-pyrazino[3,2,1-de]acridin-7-one]	92.11 ± 0.88	71.15 ± 0.19	65 ± 0.46	56.9 ± 0.59	33.5 ± 0.57	97.18 ± 0.28	94.73 ± 0.82	92.36 ± 0.46	86.88 ± 0.3	51.2 ± 0.07		92.71 ± 0.01	76.71 ± 0.17	68.5 ± 0.72	57.33 ± 0.32	23.8 ± 0.33
O=C(c1cccc(C(F)(F)F)n1)N1CCn2c3ccccc3c(=O)c3cccc1c32 [Compound 7i, 3-(6-(Trifluoromethyl)picolinoyl)-2,3-dihydropyrazino[3,2,1-de]acridin-7(1H)-one]	84.78 ± 0.64	55.71 ± 0.32	45.6 ± 0.94	28.6 ± 0.3	16.8 ± 0.37	98.39 ± 0.19	95.7 ± 0.97	93.38 ± 0.64	88.56 ± 0.24	52.19 ± 0.26		83.56 ± 0.57	59.1 ± 0.75	46.5 ± 0.52	25.8 ± 0.28	12.2 ± 0.27
O=c1c2ccccc2n2c3c(cccc13)N(c1cccnc1)CC2 [Compound 7s, 3-(Pyridin-3-yl)-2,3-dihydropyrazino[3,2,1-de]acridin-7(1H)-one]	88.63 ± 0.67	59.87 ± 0.26	49.22 ± 0.24	43.07 ± 0.28	25.4 ± 0.46	93.26 ± 0.88	91.78 ± 0.53	88.09 ± 0.54	80.57 ± 0.26	47.8 ± 0.79		84.78 ± 0.12	60.38 ± 0.24	48.4 ± 0.57	27.5 ± 0.35	15.2 ± 0.61
O=C(c1cccc(C(F)(F)F)c1)N1CCn2c3ccccc3c(=O)c3cccc1c32 [Compound 7n, 3-(3-(Trifluoromethyl)benzoyl)-2,3-dihydro-1H,7H-pyrazino[3,2,1-de]acridin-7-one]	90.57 ± 0.59	69.83 ± 0.31	61.97 ± 0.44	54.23 ± 0.32	31.96 ± 0.16	96.84 ± 0.75	94.67 ± 0.59	92.02 ± 0.39	84.32 ± 0.28	49.69 ± 0.21		95.32 ± 0.73	79.12 ± 0.33	72.72 ± 0.33	59.26 ± 0.11	26.9 ± 0.84
O=C(c1ccsc1)N1CCn2c3ccccc3c(=O)c3cccc1c32 [Compound 7h, 3-(Thiophene-3-carbonyl)-2,3-dihydropyrazino[3,2,1-de]acridin-7(1H)-one]	82.62 ± 0.41	53.8 ± 0.75	42.4 ± 0.49	21.4 ± 0.29	12.6 ± 0.72	92.81 ± 0.18	89.61 ± 0.31	86.2 ± 0.66	78.45 ± 0.18	46.23 ± 0.43		87.92 ± 0.24	62.4 ± 0.68	50.2 ± 0.65	29.5 ± 0.51	17.8 ± 0.65
COc1cccc2c1C(=O)c1c(O)c3c(c(O)c1C2=O)C[C@@](O)(C(=O)CO)C[C@@H]3O[C@H]1C[C@H](N)[C@H](O)[C@H](C)O1 [Doxorubicin, reference compound]	93.65 ± 0.42	87.54 ± 0.67	79.98 ± 0.67	69.98 ± 0.47	41.2 ± 0.79	96.1 ± 0.83	95.66 ± 0.42	92.44 ± 0.56	85.27 ± 0.78	50.25 ± 0.14		97.09 ± 0.79	90.76 ± 0.83	82.92 ± 0.54	72.6 ± 0.83	42.8 ± 0.86
O=C(c1cccc(F)c1)N1CCn2c3ccccc3c(=O)c3cccc1c32 [Compound 7q, 3-(3-Fluorobenzoyl)-2,3-dihydro-1H,7H-pyrazino[3,2,1-de]acridin-7-one]	93.46 ± 0.54	72.41 ± 0.45	66.2 ± 0.69	57.89 ± 0.12	34.1 ± 0.37	98.51 ± 0.12	96.21 ± 0.72	94.69 ± 0.34	91.34 ± 0.41	53.8 ± 0.58		94.96 ± 0.53	78.87 ± 0.43	70.57 ± 0.53	58.23 ± 0.29	25.3 ± 0.44
O=C(CC1CC1)N1CCn2c3ccccc3c(=O)c3cccc1c32 [Compound 7d, 3-(2-Cyclopropylacetyl)-2,3-dihydropyrazino[3,2,1-de]acridin-7(1H)-one]	85.23 ± 0.73	55.73 ± 0.21	45.6 ± 0.98	28.6 ± 0.43	16.83 ± 0.16	99.76 ± 0.56	98.09 ± 0.42	97.1 ± 0.88	96.35 ± 0.19	56.8 ± 0.69		88.71 ± 0.78	63.1 ± 0.71	50.91 ± 0.38	29.68 ± 0.23	18 ± 0.39
